For four compounds, IC50 results are on record in ChEMBL document CHEMBL3112408, “1,2,3-triazole-, arylamino- and thio-substituted 1,4-naphthoquinones: potent antitumor activity, electrochemical aspects, and bioisosteric replacement of C-ring-modified lapachones” (Bioorg Med Chem, 2014).

A value given as a limit tells only on which side of the number the result lay.

One test deals with L929. Description: Cytotoxicity against mouse L929 cells assessed as cell viability after 72 hrs by MTT assay. Type of test: ADME, cell-based. Conditions: L929, 72 h. (Tetrazolium dyes change colour on reduction, which living cells bring about.)
A further test has as its system V79. Description: Cytotoxicity against chinese hamster V79 cells assessed as cell viability after 72 hrs by MTT assay. The conditions noted are these: Cricetulus griseus, V79, 72 h. Type of test: cell-based.
The subject of a further test is PBMC. Description: Cytotoxicity against human PBMC assessed as cell viability after 72 hrs by MTT assay. Format: cell-based.
A short description of test [1]: Cytotoxicity against human Hs578T cells assessed as cell viability after 72 hrs by MTT assay. Type of test: functional, cell-based. The conditions noted are these: Hs-578T.
The test system of the next test is MX1. The test is described as follows: Cytotoxicity against human MX1 cells assessed as cell viability after 72 hrs by MTT assay. Type of test: functional, cell-based. Conditions: MX1, 72 h.
In a further test the test system is MCF7. The test is described as follows: Cytotoxicity against human MCF7 cells assessed as cell viability after 72 hrs by MTT assay. Type of test: functional, cell-based. Conditions: MCF7, 72 h.
Another test has as its system DU-145. Description: Cytotoxicity against human DU145 cells assessed as cell viability after 72 hrs by MTT assay. Format: functional, cell-based. The conditions noted are these: DU-145, 72 h.
A further test concerns PC-3. Description: Cytotoxicity against human PC3 cells assessed as cell viability after 72 hrs by MTT assay. Format: functional, cell-based. Conditions: PC-3, 72 h.
The subject of the next test is HCT-116. Description: Cytotoxicity against human HCT116 cells assessed as cell viability after 72 hrs by MTT assay. Conditions: HCT-116, 72 h. Type of test: functional, cell-based.
The nature of test [2]: Cytotoxicity against human HCT8 cells assessed as cell viability after 72 hrs by MTT assay. Format: functional, cell-based. Conditions: HCT-8, 72 h.
Another test deals with MDA-MB-435. Description: Cytotoxicity against human MDA-MB-435 cells assessed as cell viability after 72 hrs by MTT assay. Type of test: functional, cell-based. Conditions: MDA-MB-435, 72 h.
Another test deals with SF-295. Description: Cytotoxicity against human SF295 cells assessed as cell viability after 72 hrs by MTT assay. Type of test: functional, cell-based. The conditions noted are these: SF-295, 72 h.
The subject of another test is OVCAR-8. Description: Cytotoxicity against human OVCAR8 cells assessed as cell viability after 72 hrs by MTT assay. Format: functional, cell-based. The conditions noted are these: OVCAR-8, 72 h.
The next test concerns HL-60. Description: Cytotoxicity against human HL60 cells assessed as cell viability after 72 hrs by MTT assay. Format: functional, cell-based. Conditions: HL-60, 72 h.

In the case of `CC1(C)CC(n2cc(C3CCCCC3)nn2)C2=C(O1)C(=O)c1ccccc1C2=O` (stereo unspecified), the IC50 (commonly the midpoint of a concentration-inhibition curve) was 12.5 µM with L929; 12 µM with V79; more than 12 µM in the test with PBMC; 10.9 µM in test [1]; more than 12 µM in the test with MX1; more than 12 µM in the test on MCF7. Also, the IC50 is 11.7 µM with DU-145; 11.2 µM in the test with PC-3; 10.5 µM in the test with HCT-116; 12.3 µM in test [2]; 10.7 µM in the test with MDA-MB-435; 11.3 µM in the test with SF-295. The figures for the IC50 in the test on OVCAR-8 and in the test with HL-60 were 15.1 µM and 10.4 µM, respectively.
On to `CCCCCc1cn(C2CC(C)(C)OC3=C2C(=O)c2ccccc2C3=O)nn1` (stereo unspecified), for which the IC50 with L929 turned out to be 4.98 µM; with V79, 5.59 µM; with PBMC, 7.77 µM; in test [1], 3.08 µM; with MX1, 2.4 µM; in the test with MCF7, 3.16 µM. Moreover, the IC50 in the test with DU-145 was 2.48 µM; with PC-3, 3.66 µM; in the test with HCT-116, 4.93 µM; in [2], 4.45 µM; in the test with MDA-MB-435, 2.77 µM; in the test on SF-295, 2.77 µM. In addition, the IC50 in the test on OVCAR-8 came to 6.67 µM; with HL-60, 1.37 µM.
Take `CCC(C)(O)c1cn(C2CC(C)(C)OC3=C2C(=O)c2ccccc2C3=O)nn1` (stereo unspecified): the IC50 came out at 3.85 µM in the test on L929; 4.06 µM in the test on V79; 4.77 µM with PBMC; 3.04 µM in [1]; 3.41 µM in the test with MX1; 3.12 µM with MCF7. For the same compound, the IC50 in the test with DU-145 turned out to be 3.36 µM; in the test with PC-3 it was 3.07 µM; in the test on HCT-116, 3.2 µM; in test [2] it was 2.73 µM; in the test with MDA-MB-435, 2.1 µM; with SF-295 it was 4.22 µM. Further, the IC50 was 4.77 µM in the test on OVCAR-8 and 2.12 µM in the test on HL-60.
As for `CC(=O)OC[C@H]1OC(n2cc(CNC3=CC(=O)c4ccccc4C3=O)nn2)[C@H](OC(C)=O)[C@@H](OC(C)=O)[C@@H]1OC(C)=O` (single isomer, unassigned), the IC50 (in the test on L929; in the test with V79; in the test on PBMC; in test [1]; in the test on MX1; in the test with MCF7) was more than 8 µM each time. Also, the IC50 (in the test with DU-145; in the test on PC-3; in the test on HCT-116; in [2]; in the test on MDA-MB-435; in the test with SF-295) was more than 8 µM throughout. Moreover, the IC50 with OVCAR-8 and in the test with HL-60 was more than 8 µM each time.
